Target: T1, élastase de leucocytes humains (Homo sapiens, UniProt P08246)
T1 construct: purchased Elastin Products Co. SE 563; host or cells: human leukocytes, as the enzyme's name says
T1 sequence (P08246 30-267): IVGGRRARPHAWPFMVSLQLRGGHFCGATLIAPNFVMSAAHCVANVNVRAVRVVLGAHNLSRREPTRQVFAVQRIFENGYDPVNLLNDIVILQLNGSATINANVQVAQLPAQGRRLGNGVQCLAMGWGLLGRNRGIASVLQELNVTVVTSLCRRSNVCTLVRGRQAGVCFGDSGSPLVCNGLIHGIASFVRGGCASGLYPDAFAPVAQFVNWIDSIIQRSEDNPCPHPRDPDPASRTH
Experiment: Anti-elastase activity: release of p-nitroaniline from N-succinyl-(Ala)3-p-nitroanilide, spectrophotometry at 410 nm
Type: biochemical
Details: pH 8, 37°C, pH8, 5 min preincubation, substrate 250 µM, read-out: % I (%)
Text: Les exemples qui suivent permettent d'illustrer l'invention. Dans ces exemples, on utilise les méthodes d'analyse suivantes : - Spectrographie infrarouge (IR) Les spectres sont réalisés au moyen d'un appareil PERKIN ELMER 1760 IRTF, en dispersion dans KBr à 1 %. Les valeurs sont exprimées en nombre d'onde par centimètre. - Résonance magnétique nucléaire (RMN) Les spectres sont réalisés au moyen d'un appareil BRUCKER DRX 500, à 500 MHz (^1H) et 125 MHz (^13C) dans le DMSO-d6. La calibration de l'appareil est effectuée au moyen de DMSO. Les déplacements chimiques sont exprimés en ppm. L'aspect des signaux est noté : singulet (s), doublet (d), triplet (t), quadruplet (q), multiplet (m), quintuplet (*5) et couplage AB (AB). - Mesure de l'activité anti-élastase L'activité anti-élastase est mesurée selon la méthode qui consiste à faire réagir l'élastase de leucocytes humains (référence SE 563; Elastin Products Co.; Owensville, MO, USA) avec le N-succinyl-(Ala)3-p-nitroanilide (réf. S4760; Sigma) et mesurer la libération de p-nitroaniline. On utilise le N-succinyl-(Ala)3-p-nitroanilide en solution dans le tétrahydrofurane et une solution d'élastase à 100 mg/ml dans un mélange de glycérol et de tampon acétate de sodium (50/50; v/v), pH5. L'activité de l'enzyme est mesurée à 37°C dans 100 mM de tampon Tris-HCI, pH8 contenant 0,01 % de Triton X-100 (volume/volume) et 0,02 % d'azide de sodium (poids/volume). Le céramide à tester, solubilisé dans le tétrahydrofurane (concentration en THF = 0,5 % en volume) est préincubé en présence de l'enzyme (0,05 mg/ml) dans le tampon pendant 5 minutes à 37°C. On ajoute le N-succinyl-(Ala)3-p-nitroanilide (concentration finale : 250 µM) et on mesure la libération de la p-nitroaniline dans une cuve en quartz par spectrophotométrie à 410 nm. La capacité inhibitrice du céramide est exprimée en pourcentage d'inhibition (% I) selon la relation : %I = (1 -(Vi)/(Vo))×100 [formula] dans laquelle Vi et Vo sont les vitesses d'apparition de la p-nitroaniline en présence et en absence d'inhibiteur respectivement. - Mesure de l'amélioration de la barrière cutanée a) mesure de la Perte Insensible en Eau (PIE) La mesure de la PIE permet de quantifier la très faible quantité d'eau qui diffuse passivement à travers le stratum corneum. Ce paramètre représente un très bon index de la fonction barrière du stratum corneum. Cette méthode est surtout utilisée pour contrôler l'efficacité de formules cosmétiques qui, contenant certains types de lipides sont capables de diminuer la PIE et, en conséquence, d'empêcher la déshydratation du stratum corneum. La sonde est laissée en contact de la peau pendant 2 minutes environ de façon à atteindre une position d'équilibre. PIE = D'(dP)/(dx)(gradient de pression de vapeur) [formula] Les valeurs sont exprimées en g/m^2/heure et permettent de calculer un delta de PIE = PIE (peau traitée) - PIE (peau témoin). L'appareil utilisé est un Evaporimètre EPI de Servomed. Les mesures sont effectuées sur deux groupes de 15 volontaires sains ayant une peau sèche, avant l'application du produit (t=0) et après l'application (t=0,5 heure, 1 heure, 3 heures et 6 heures) sur la face interne des deux avant-bras. L'analogue de céramide selon l'invention ou le céramide témoin est incorporé dans une crème ayant la composition suivante (en % en poids) : […]

inhibition at 250 µM (Concentration 250 µM): 67%
inhibition at 500 µM (Concentration 500 µM): 86%
Compound: CCCCCCCCCCCCCCCCCC(=O)NC(CC)(CO)COC(=O)CCCCCCCCCCCCCCCCC (centres unmarked) [Exemple 4, 1-stéaroyl-2-éthyl-2-stéaroylamino-1,3-propanediol]

— EP0968998A1, “Cosmetic compositions, ceramide analogues with anti-elastase activity and process for their preparation” (ELF ATOCHEM S.A., priority 1998, dated 2000)
